Measured values as given in publication PMC5905287, “Synthesis and in vitro biochemical evaluation of oxime bond-linked daunorubicin–GnRH-III conjugates developed for targeted drug delivery” (Beilstein Journal of Organic Chemistry, 2018).
Where two headings read alike, the source gives them in different places. Non-standard residues stand in square brackets, D forms with d. Residues, ends and D or L forms follow the SMILES beside them. *: point of attachment. Daunorubicin(13-NOCH2CO) = COc1cccc2c1C(=O)c1c(O)c3c(c(O)c1C2=O)C[C@@](O)(C(C)=NOCC(=O)*)C[C@@H]3O[C@H]1C[C@H](N)[C@H](O)[C@H](C)O1; pGlu = O=C1CC[C@@H](C(=O)O)N1; Butyryl = CCCC(=O)*

Key:
GnRH-RI = molecular target: T1, GnRH-RI (Homo sapiens, UniProt P30968); assay: Competitive inhibition of [125I][6D-Trp]-GnRH-I binding, human pituitary membranes; design: human prostate cancer cells were obtained from a patient at the time of initial surgical treatment; from tissue; host or cells: human prostate cancer specimen from a patient (surgery); membrane homogenate
T1 sequence (P30968 1-328): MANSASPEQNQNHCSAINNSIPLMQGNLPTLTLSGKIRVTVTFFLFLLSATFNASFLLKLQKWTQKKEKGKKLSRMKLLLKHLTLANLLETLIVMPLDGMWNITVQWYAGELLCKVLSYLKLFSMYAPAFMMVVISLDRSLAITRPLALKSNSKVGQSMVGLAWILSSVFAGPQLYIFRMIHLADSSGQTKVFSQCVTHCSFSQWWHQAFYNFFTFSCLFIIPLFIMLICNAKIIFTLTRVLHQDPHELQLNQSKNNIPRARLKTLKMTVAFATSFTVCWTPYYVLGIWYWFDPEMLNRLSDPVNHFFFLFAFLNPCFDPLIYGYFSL
Protocol: To investigate the binding affinity of the novel compounds to the GnRH-receptor, an in vitro ligand competition assay has been performed on human pituitary and GnRH-R positive human prostate cancer tissues. Hereby, the displacement of radiolabeled triptorelin by the unlabeled bioconjugates 1, 2, 4 and 5 was determined. For a better comparison, the bioconjugates K1 and K2 were also analyzed and used as reference. The obtained results summarized in Table 3 point out that all bioconjugates replaced [^125I]-triptorelin with IC50 values in low nanomolar range. […] (1.6 nM and 0.9 nM) and GnRH-II–[D-Lys^6(Dau=Aoa)] (4.2 nM and 2.1 nM).
Radiolabeled triptorelin was used for displacement studies to evaluate the binding affinity of the conjugates K1, K2, 1, 2, 4 and 5 to GnRH-RI on human pituitary and human prostate cancer cells. […] The binding affinities of the nonradio-labeled GnRH-III bioconjugates to GnRH-RI were determined by displacement of [^125I]-GnRH-I-[^6D-Trp] performing an in vitro ligand competition assay as recently reported. […] Supernatants were aspirated and the bottoms of the tubes containing the pellet were cut off and counted in a gamma counter. Protein concentration was determined by the method of Bradford using a Bio-Rad protein assay kit (Bio-Rad Laboratories, USA). […]

[1] = test system: HT-29 human colon cancer cell line; assay: In vitro cytostatic effect, alamarBlue assay, HT-29; format: cell-based
Text: (§1) Cell lines often function as the first model system of choice to study biological processes or to test the efficiency of drugs or drug conjugates and their cytotoxic effects. Immortal cell lines offer various benefits, for instance they are easy to handle, cost-effective and provide consistent sample and reproducible results. Nevertheless, cell lines also present the disadvantage that after a period of continuous growth, cell characteristics can change and dedifferentiate in culture. The serial passaging can cause genotypic and phenotypic variations and the state of confluency can also affect gene expression pattern in some cell lines. Due to this, the usage of internal standards during the evaluation of new potential candidates might be necessary to ensure comparability with previous results. The cytostatic effect of the novel GnRH-III bioconjugates was determined on HT-29 human colon cancer and MCF-7 human breast cancer cell lines by alamarBlue® assay. For a better comparison, the well-studied bioconjugates GnRH-III–[^8Lys(Dau=Aoa)] (K1) and GnRH-III–[^4Lys(Bu), ^8Lys(Dau=Aoa)] (K2) were used as positive controls and internal standards. The corresponding IC50 values were calculated by using nonlinear regression (sigmoidal dose response) (Figure 3, Table 2). Unfortunately, the D-Trp containing compounds 3 and 6 started to precipitate in both cell culture media at higher concentrations limiting the concentration down to a maximum of 10 µM. This effect could not be prevented by using DMSO instead of ddH2O for the preparation of the stock solutions. Unfortunately, the lower concentration range with a maximum of 10 µM was not sufficient to achieve the dose-response. […] Nevertheless, the replacement of ^6Asp by D-Asp, D-Glu or D-Trp led to a decreased cytostatic effect on the estimated cancer cell lines.
(§2) MCF-7 human breast adenocarcinoma cells were cultured in Dulbecco’s Modified Eagle Medium (DMEM, Lonza, Basel, Switzerland), supplemented with 10% (v/v) fetal bovine serum (FBS, Lonza), L-glutamine (2 mM, Lonza), non-essential amino acids (NEAA, Sigma-Aldrich Kft), sodium pyruvate (1 mM, Lonza) and penicillin-streptomycine (Lonza). […]
(§3) Cells were seeded to 96-well plates (Sarstedt, Nümbrecht, Germany, 5 × 10^3 cells/well) one day prior to the treatment in complete cell medium. […] Fluorescence was detected using Synergy H4 multi-mode microplate reader (BioTek, Winooski, VT, USA), excitation and emission wavelengths were set to 570 and 620 nm, respectively. Cytostasis was measured using 4 parallels, each experiment was repeated twice. Cytostatic effect (and IC50 values) were calculated by using nonlinear regression (sigmoidal dose response) with Origin Pro8 (OriginLab Corp., Northampton, MA, USA.).

[2] = test system: MCF-7 human breast cancer cell line; assay: In vitro cytostatic effect, alamarBlue assay, MCF-7; format: cell-based
Text: as §1, §2, §3

Compound | IC50 (GnRH-RI; displacement of [125I]-triptorelin, human pituitary membranes, mean ± SE, read-out: IC50 pituitary) | IC50 ([1]; 24 h) | IC50 ([2]; 24 h) | IC50 (GnRH-RI) | IC50 ([1]; 24 h treatment, then 48 h in complete medium, alamarBlue, mean ± SE, read-out: HT-29 IC50) | IC50 ([2]; 24 h treatment, then 48 h in complete medium, alamarBlue, mean ± SE, read-out: MCF-7 IC50)
COc1cccc2c1C(=O)c1c(O)c3c(c(O)c1C2=O)C[C@@](O)(C(C)=NOCC(=O)NCCCC[C@H](NC(=O)[C@H](Cc1c[nH]c2ccccc12)NC(=O)[C@@H](CCC(=O)O)NC(=O)[C@H](Cc1c[nH]cn1)NC(=O)[C@H](CO)NC(=O)[C@H](Cc1c[nH]c2ccccc12)NC(=O)[C@H](Cc1c[nH]cn1)NC(=O)[C@@H]1CCC(=O)N1)C(=O)N1CCC[C@H]1C(=O)NCC(N)=O)C[C@@H]3O[C@H]1C[C@H](N)[C@H](O)[C@H](C)O1 [compound 2, [6D-Glu, 8Lys(Dau=Aoa)]] ([pGlu]HWSH[dE]WK(Daunorubicin(13-NOCH2CO))PG-NH2) | 0.0235 ± 0.0021 µM | 10.1 ± 1.4 µM | 6.8 ± 1 µM | – | – | –
CCCC(=O)NCCCC[C@H](NC(=O)[C@H](Cc1c[nH]c2ccccc12)NC(=O)[C@H](Cc1c[nH]cn1)NC(=O)[C@@H]1CCC(=O)N1)C(=O)N[C@@H](Cc1c[nH]cn1)C(=O)N[C@H](CCC(=O)O)C(=O)N[C@@H](Cc1c[nH]c2ccccc12)C(=O)N[C@@H](CCCCNC(=O)CON=C(C)[C@]1(O)Cc2c(O)c3c(c(O)c2[C@@H](O[C@H]2C[C@H](N)[C@H](O)[C@H](C)O2)C1)C(=O)c1c(OC)cccc1C3=O)C(=O)N1CCC[C@H]1C(=O)NCC(N)=O [compound 5, [4Lys(Bu), 6D-Glu, 8Lys(Dau=Aoa)]] ([pGlu]HWK(Butyryl)H[dE]WK(Daunorubicin(13-NOCH2CO))PG-NH2) | – | – | – | 0.0079 ± 0.0011 µM | 13.7 ± 2.6 µM | 7 ± 1.2 µM
